Source: patent US20110160166A1, “Therapeutic composition for the treatment and prevention of athlete's foot and fungal infections of the nail and surrounding tissues” (priority 2009, published 2011)

Tests used:
nail fungus = conditions: after 48 weeks of daily topical treatment; cited from earlier work
[1] = Excerpt: Salicylic acid USP is well known as a strongly antimicrobial pharmaceutical ingredient. It is currently approved by US FDA as an Over-the-Counter active ingredient in anti-dandruff and anti-acne medicaments. Salicylic acid is a skin and eye irritant and a keratolytic, and must be used at low concentrations when applied to human tissue.
toenail infections = conditions: cited from earlier work
fingernail infections = conditions: terbinafine; 6 weeks of treatment, assessment at 18 weeks after completion of therapy; cited from earlier work
[2] = target: Cytochrome P450 2D6 isozyme (Homo sapiens, UniProt P10635); conditions: cited from earlier work
Cytochrome P450 2D6 isozyme, sequence (P10635 whole entry): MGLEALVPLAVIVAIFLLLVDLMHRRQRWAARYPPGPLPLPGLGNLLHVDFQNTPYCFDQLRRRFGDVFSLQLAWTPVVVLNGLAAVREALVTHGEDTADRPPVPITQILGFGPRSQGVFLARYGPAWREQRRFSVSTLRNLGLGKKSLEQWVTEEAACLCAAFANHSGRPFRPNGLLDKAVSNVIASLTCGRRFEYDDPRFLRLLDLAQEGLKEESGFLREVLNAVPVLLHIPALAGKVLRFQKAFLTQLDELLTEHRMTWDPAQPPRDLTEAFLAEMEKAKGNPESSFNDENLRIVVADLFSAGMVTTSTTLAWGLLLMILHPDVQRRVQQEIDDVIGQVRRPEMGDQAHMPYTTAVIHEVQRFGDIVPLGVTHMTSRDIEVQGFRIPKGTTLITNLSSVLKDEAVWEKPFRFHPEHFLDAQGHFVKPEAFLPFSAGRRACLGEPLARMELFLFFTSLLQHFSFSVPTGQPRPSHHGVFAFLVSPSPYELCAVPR

## Cc1cc(C2CCCCC2)n(O)c(=O)c1 [Ciclopirox 8%, Ciclopirox]
Nail fungus
  patients who achieved clear or almost clear nails: < 12%

## O=C(O)c1ccccc1O [Salicylic acid]
[1]; formulated into an anhydrous base, applied to human nail and surrounding tissues
  keratolytic and irritant effects: dramatically reduced or eliminated
[1]; high concentrations in anhydrous base
  irritation experienced by the subject: no irritation

## CN(C/C=C/C#CC(C)(C)C)Cc1cccc2ccccc12 [terbinafine]
Toenail infections; terbinafine 250 mg oral, 12 weeks treatment, 36 weeks follow-up after completion of therapy
  cure rates for toenail infections: 38%-59%
Toenail infections; terbinafine, toenail infections
  clinical relapse rate: ~15%
Fingernail infections
  cure rates for fingernail infections: 59-79%
[2]
  inhibition of Cytochrome P450 2D6 isozyme: inhibitor
